# From patent US11649245B2, “Cyclopropylamine compound as LSD1 inhibitor and use thereof” (HELIOEAST PHARMACEUTICAL CO., LTD., priority 2018, dated 2023)
# pIC50: −log10 of the molar value. Counter-ions that a name gives are not always drawn.
# How the values were obtained:
# human LSD1 = human LSD1 (Homo sapiens, UniProt O60341); experiment: In vitro enzyme activity screening against LSD1 (HRP/Amplex Red fluorescence coupling enzyme method); assay type: biochemical; conditions: human LSD1, histone H3K4me peptide substrate 20 μM
# Description: The purpose of this test was to detect the in vitro inhibitory activity of the compounds against LSD1. The enzyme used in this test was human LSD1, the standard substrate was histone H3K4me peptide (20 μM), the fluorescence coupling enzyme method was used to determine the activity of the compound by combining horseradish peroxidase (HRP) and fluorescent reagent Amplex Red to detect the H2O2 generation as a result of the reaction of LSD1. Compounds were tested in 10-dose IC50 mode with a 3-fold serial dilution starting at 10 μM. The enzyme and […] to start the reaction. Fluorescence detector: Envision, excitation wavelength: Ex/Em=530/590 […]
# NCI-H1417 cells = experiment: Antiproliferation activity on NCI-H1417 cells (CellTiter-Glo, 10 days); assay type: cell-based, human; conditions: Homo sapiens, NCI-H1417, 240 h, incubated for 10 days
# Description: Experimental purpose: to detect the antiproliferation activity of the compounds on NCI-H1417 cells.
# Experimental materials: RPMI 1640 culture medium, fetal bovine serum, Promega CellTiter-Glo reagent. NCI-H1417 cell line purchased from ATCC. Envision multi-label reader (PerkinElmer).
# Experimental method: the compounds were dissolved to 10 mM, then the compounds were diluted 5 times with DMSO in a compound plate, the compounds were diluted 3-fold with Bravo from a starting concentration of 2 mM to the 10th concentration, 250 nL of the solutions were transferred to the upper and lower duplicate wells on a blank 384 cell plate by Echo transfer plate, cell suspension of per well/1000 cells/50 μL was added to the transferred 250 nL DMSO/compound, the compounds were diluted 200-fold, i.e., the initial action concentration was 10 μM. The cell plate was placed in a carbon dioxide incubator and incubated for 10 days. 25 μL of Promega CellTiter-Glo reagent was added to each well on the cell plate and was shaken at room temperature for 10 minutes to stabilize the luminescence signal. Readings were performed by PerkinElmer Envision multi-label analyzer.
# Data analysis: the equation (Max-Ratio)/(Max-Min)*100% was used to convert the original data into the inhibition rate, the value of IC50 can be obtained by curve fitting of four-parameters (the 205 mode in XLFITS, iDBS).
# HL60 cells = experiment: Antiproliferation activity on HL60 cells (CellTiter-Glo, 6 days); assay type: cell-based; conditions: Homo sapiens, HL-60, 144 h, incubated for 6 days
# From the text: Experimental purpose: to detect the antiproliferation activity of the compound to be tested on HL60 cells.
# (§1) Experimental materials: RPMI-1640 culture medium, fetal bovine serum, penicillin/streptomycin antibiotics purchased from Wisent. CellTiter-Glo (chemiluminescent cell viability assay reagent) reagents purchased from Promega. HL60 cell line purchased from Nanjing Cobioer Co., Ltd. Nivo multi-label reader (PerkinElmer).
# Experimental method: HL60 cells were planted in a white 384-well plate, 40 μL of cell suspension per well, 600 HL60 cells were contained therein. The cell plate was placed in a carbon dioxide incubator for overnight culture. The compounds to be tested were diluted 5-fold with a pipet until the 10th concentration, i.e., diluted from 2 mM to 1.024 nM, double duplicate well experiment was set. 78 μL of the culture medium was added to an intermediate plate, and then 2 μL per well of the serially diluted compounds were transferred to the corresponding positions on the intermediate plate, after mixing, 10 μL per well was transferred to the cell plate. The cell plate was incubated in a carbon dioxide incubator for 6 days. Another cell plate was prepared and the signal value on the day of dosing was read as the maximum value (Max value in the equation below) to participate in the data analysis. 20 μL of chemiluminescent cell viability assay reagent was added to each well of this cell plate, which was incubated at room temperature for 10 minutes to stabilize the luminescence signal. The multi-label reader was used for reading.
# (§2) Data analysis: the equation (Sample-Min)/(Max-Min)*100% was used to convert the original data into the inhibition rate, the IC50 value can be obtained by curve fitting of four-parameters (“log(inhibitor) vs. response—Variable slope” mode in GraphPad Prism)).
# MV-4-11 cells = experiment: Antiproliferation activity on MV-4-11 cells (CellTiter-Glo, 6 days); assay type: cell-based; conditions: Homo sapiens, MV4-11, 144 h, incubated for 6 days
# From the text: Experimental purpose: to detect the antiproliferation activity of the compound to be tested on MV-4-11 cells.
# as §1, with “IMDM” for “RPMI-1640”, “MV-4-11” for “HL60”, “line was” for “line”, “Multi-Marker Analyzer” for “multi-label reader”
# Experimental method: MV-4-11 cells were planted in a white 96-well plate, 80 μL of cell suspension per well, which contained 6000 MV-4-11 cells. The cell plate was placed in a carbon dioxide incubator for overnight culture.
# The compounds to be tested were diluted 5-fold with a pipet until the 8th concentration, i.e., diluted from 2 mM to 25.6 nM, double duplicate well experiment was set. 78 μL of the culture medium was added to an intermediate plate, and then 2 μL per well of the serially diluted compounds were transferred to the corresponding positions on the intermediate plate, after mixing, 20 μL per well was transferred to the cell plate. The cell plate was incubated in a carbon dioxide incubator for 6 days. Another cell plate was prepared and the signal value on the day of dosing was read as the maximum value (Max value in the equation below) to participate in the data analysis. 25 μL of the chemiluminescent cell viability assay reagent was added to each well of this cell plate, which was incubated at room temperature for 10 minutes to stabilize the luminescence signal. The multi-label analyzer was used for reading.
# as §2
# [1] = In vivo pharmacokinetics in CD-1 mice; conditions: male, CD-1, mouse, plasma, male CD-1 mice
# Description: CD-1 mice (male, 7-9 weeks old, Shanghai Slac)
# The rodent pharmacokinetic characteristics after intravenous injection and oral administration of the compounds were tested by standard protocols, in the experiment, the candidate compounds were formulated into clear solutions and administrated to mice via a single intravenous injection and oral administration. The vehicle for intravenous injection and oral administration was a mixed solution of 10% of dimethyl sulfoxide and 90% of 10% hydroxypropyl β cyclodextrin. This project used four male CD-1 mice, two mice were administered intravenously, with a dose of 1 mg/kg, and plasma samples were collected at 0 hour (before administration) and 0.0833, 0.25, 0.5, 1, 2, 4, 8, 24 hours after administration. The other two mice were orally administered by gavage, with a dose of 2 mg/kg, plasma samples were collected at 0 hour (before administration) and 0.25, 0.5, 1, 2, 4, 8, 24 hours after administration, whole blood samples were collected within 24 hours, which were centrifuged at 3000 g for 15 minutes, and the supernatants were separated to obtain plasma samples, 4 times volume of acetonitrile solutions containing internal standard were added to precipitate the protein, the mixtures were centrifuged to obtain the supernatants, the supernatants were added with water of equal volume and centrifuged again to take the supernatant for injection, and the blood drug concentration was quantitatively analyzed by the LC-MS/MS analysis method, and pharmacokinetic parameters were calculated, such as max concentration (Cmax), clearance (CL), half-life (T1/2), volumes of distribution (Vdss), the area under the plasma concentration-time curve (AUC0-last), bioavailability (F) etc.
pIC50 (human LSD1),pIC50 (NCI-H1417 cells),pIC50 (HL60 cells),pIC50 (MV-4-11 cells),"half-life ([1]; iv, 1 mg/kg, IV 1 mg/kg, read-out: Half-life T1/2 (IV) (converted)) [h]","clearance ([1]; iv, 1 mg/kg, study doses 1 mg/kg intravenous, 2 mg/kg oral, read-out: Clearance CL) [mL/min/kg]","Vd ([1]; iv, 1 mg/kg, study doses 1 mg/kg intravenous, 2 mg/kg oral, read-out: Volumes of distribution Vdss) [L/kg]","Cmax ([1]; study doses 1 mg/kg intravenous, 2 mg/kg oral, route not given, read-out: Max concentration Cmax) [nM]","AUC(0-t) ([1]; po, 2 mg/kg, PO 2 mg/kg, read-out: The area under the plasma concentration-time curve AUC0-last PO) [µM·h]","bioavailability ([1]; po, 2 mg/kg, oral 2 mg/kg vs intravenous 1 mg/kg, read-out: Bioavailability F) [%]",SMILES
7.04,8.95,8.93,9.34,–,–,–,–,–,–,N#Cc1ccc(CN2CCC3(CC2)CC(N[C@@H]2C[C@H]2c2ccccc2)CO3)cc1 (stereo partly shown) [Hydrochloride of the compound 21]
5.94,7.04,6.47,7.48,–,–,–,–,–,–,O=C(O)C1(CN2CCC3(CC2)CC(N[C@@H]2C[C@H]2c2ccccc2)CO3)CCC1 (stereo partly shown) [Hydrochloride of the compound 30]
5.93,8.40,9.26,8.72,–,–,–,–,–,–,O=C(O)CC1(N2CCC3(CC2)CC(N[C@@H]2C[C@H]2c2ccccc2)CO3)CNC1 (stereo partly shown) [Hydrochloride of the compound 32]
7.42,8.36,8.72,8.86,1.39,25.3,2.09,1150,2.14,58.3,NC1(C(=O)N2CCC3(CC2)CC(N[C@@H]2C[C@H]2c2ccccc2)CO3)CC1 (stereo partly shown) [Hydrochloride of the compound 34]
